Data reported in patent US20050090529A1, “3,5 Disubstituted indazole compounds with nitrogen-bearing 5-membered heterocycles, pharmaceutical compositions, and methods for mediating or inhibiting cell proliferation” (PFIZER INC, priority 2003, published 2005).

Each compound was assayed on Cyclin-dependent kinase (assay: Cyclin-dependent kinase inhibition, % inhibition at 10 nM (library Examples 99-270)). Conditions: 10 nM compound.
Assay type: biochemical
Protocol: Cyclin-dependent kinase activity was measured by quantifying the enzyme-catalyzed, time-dependent incorporation of radioactive phosphate from [^32P]ATP or [^33P]ATP into a protein substrate. Unless noted otherwise, assays were performed in 96-well plates in a total volume of 50 μL, in the presence of 10 mM HEPES (N-[2-hydroxyethyl]piperazine-N′-[2-ethanesulfonic acid]) (pH 7.4), 10 mM MgCl2, 25 μM adenosine triphosphate (ATP), 1 mg/mL ovalbumin, 5 μg/mL leupeptin, 1 mM dithiothreitol, 10 mM beta-glycerophosphate, 0.1 mM sodium vanadate, 1 mM sodium fluoride, 2.5 mM ethylene glycol-bis(β-aminoethyl ethKer)-N,N,N′N′-tetraacetic acid (EGTA), 2% (v/v) dimethylsulfoxide, and 0.03-0.4 μCi [^32/33P]ATP per reaction. Reactions were initiated with enzyme, incubated at 30° C., and terminated after 20 minutes by the addition of ethylenediaminetetraacetic acid (EDTA) to 250 mM. The phosphorylated substrate was then captured on a nitrocellulose or phosphocellulose membrane using a 96-well filtration manifold, and unincorporated radioactivity was removed by repeated washing with 0.85% phosphoric acid. Radioactivity was quantified by exposing the dried membranes to a phosphorimager.
Results of assays performed on compounds, which include the specific examples described above are provided in Examples 99-274 above, and in Table 1 below. Unless indicated otherwise in a particular entry, the units and assays used are as indicated in the applicable column of the table.

Compound	% Inhib @ 10 nM
CCNCc1cncc(-c2ccc3[nH]nc(-c4ncc(C(=O)N(CC)CC)[nH]4)c3c2)c1C [Example 132, N,N-diethyl-2-(5-{5-[(ethylamino)methyl]-4-methylpyridin-3-yl}-1H-indazol-3-yl)-1H-imidazxole-5-carboxamide]	80%
CCNCc1cncc(-c2ccc3[nH]nc(-c4ncc(C(=O)N5CCN(c6c(C)cccc6C)CC5)[nH]4)c3c2)c1C [Example 133]	67%
CCNCc1cncc(-c2ccc3[nH]nc(-c4ncc(C(=O)NC5CCC5)[nH]4)c3c2)c1C [Example 135, N-cyclobutyl-2-(5-{5-[(ethylamino)methyl]-4-methylpyridin-3-yl}-1H-indazol-3-yl)-1H-imidazole-5-carboxamide]	67%
CCNCc1cncc(-c2ccc3[nH]nc(-c4ncc(C(=O)NCC(F)(F)F)[nH]4)c3c2)c1C [Example 136, 2-(5-{5-[(ethylamino)methyl]-4-methylpyridin-3-yl}-1H-indazol-3-yl)-N-(2,2,2-trifluoroethyl)-1H-imidazole-5-carboxamide]	72%
CCNCc1cncc(-c2ccc3[nH]nc(-c4ncc(C(=O)N(C)C5CCN(C)C5)[nH]4)c3c2)c1C (stereo not drawn) [Example 137, 2-(5-{5-[(ethylamino)methyl]-4-methylpyridin-3-yl}-1H-indazol-3-yl)-N-methyl-N-(1-methylpyrrolidin-3-yl)-1H-imidazole-5-carboxamide]	37%
CCNCc1cncc(-c2ccc3[nH]nc(-c4ncc(C(=O)N5CCCC5)[nH]4)c3c2)c1C [Example 138, ethyl[(4-methyl-5-{3-[5-(pyrrolidin-1-ylcarbonyl)-1H-imidazol-2-yl]-1H-indazol-5-yl}pyridin-3-yl)methyl]amine]	79%
CCNCc1cncc(-c2ccc3[nH]nc(-c4ncc(C(=O)NC5(CO)CCCC5)[nH]4)c3c2)c1C [Example 139, 2-(5-{5-[(ethylamino)methyl]-4-methylpyridin-3-yl}-1H-indazol-3-yl)-N-[1-(hydroxymethyl)cyclopentyl]-1H-imidazole-5-carboxamide]	64%
CCNCc1cncc(-c2ccc3[nH]nc(-c4ncc(C(=O)N[C@H](CO)Cc5c[nH]c6ccccc56)[nH]4)c3c2)c1C [Example 140, 2-(5-{5-[(ethylamino)methyl]-4-methylpyridin-3-yl}-1H-indazol-3-yl)-N-[(1S)-2-hydroxy-1-(1H-indol-3-ylmethyl)ethyl]-1 H-imidazole-5-carboxamide]	31%
CCNCc1cncc(-c2ccc3[nH]nc(-c4ncc(C(=O)N5CCC(O)(Cc6ccccc6)CC5)[nH]4)c3c2)c1C [Example 141, 4-benzyl-1-{[2-(5-{5-[(ethylamino)methyl]-4-methylpyridin-3-yl}-1H-indazol-3-yl)-1H-imidazol-5-yl]carbonyl}pipendin-4-ol]	71%
CCNCc1cncc(-c2ccc3[nH]nc(-c4ncc(C(=O)N5CCC(C(=O)c6ccc(F)cc6)CC5)[nH]4)c3c2)c1C [Example 142, (1-{[2-(5-{5-[(ethylamino)methyl]-4-methylpyridin-3-yl}-1H-indazol-3-yl)-1H-imidazol-5-yl]carbonyl}piperidin-4-yl)(4-fluorophenyl)methanone]	65%
CCNCc1cncc(-c2ccc3[nH]nc(-c4ncc(C(=O)NC5CCCCC5)[nH]4)c3c2)c1C [Example 143, N-cyclohexyl-2-(5-{5-[(ethylamino)methyl]-4-methylpyridin-3-yl}-1H-indazol-3-yl)-1H-imidazole-5-carboxamide]	78%
CCNCc1cncc(-c2ccc3[nH]nc(-c4ncc(C(=O)NCCC#N)[nH]4)c3c2)c1C [Example 154, N-(2-cyanoethyl)-2-(5-{5-[(ethylamino)methyl]-4-methylpyridin-3-yl}-1H-indazxol-3-yl)-1H-imidazole-5-carboxamide]	71%

Further lines, results first:

% Inhib @ 10 nM	Compound
30%	CCNCc1cncc(-c2ccc3[nH]nc(-c4ncc(C(=O)N5CCN(c6ccncc6)CC5)[nH]4)c3c2)c1C [Example 144, ethyl{[4-methyl-5-(3-{5-[(4-pyridin-4-ylpiperazin-1-yl)carbonyl]-1H-imidazol-2-yl}-1H-indazol-5-yl)pyridin-3-yl]methyl}amine]
58%	CCNCc1cncc(-c2ccc3[nH]nc(-c4ncc(C(=O)N5CCN(c6cnccn6)CC5)[nH]4)c3c2)c1C [Example 145]
22%	C=CCN(CC=C)CCN1CCN(C(=O)c2cnc(-c3n[nH]c4ccc(-c5cncc(CNCC)c5C)cc34)[nH]2)CC1 [Example 146, diallyl[2-(4-{[2-(5-{5-[(ethylamino)methyl]-4.-methylpyridin-3-yl}-1H-indazol-3-yl)-1H-imidazol-5-yl]carbonyl}piperazin-1-yl)ethyl]amine]
69%	CCNCc1cncc(-c2ccc3[nH]nc(-c4ncc(C(=O)N5CCN(c6ccccc6C#N)CC5)[nH]4)c3c2)c1C [Example 147]
60%	CCNCc1cncc(-c2ccc3[nH]nc(-c4ncc(C(=O)NCc5ccc(F)c(C(F)(F)F)c5)[nH]4)c3c2)c1C [Example 148]
69%	CCNCc1cncc(-c2ccc3[nH]nc(-c4ncc(C(=O)N5CCC6CCCCC6C5)[nH]4)c3c2)c1C (stereo not drawn) [Example 149, ethyl[(4-methyl-5-{3-[5-(octahydroisoquinolin-2(1H)-ylcarbonyl)-1H-imidazol-2-yl]-1H-indazol-5-yl}pyridin-3-yl)methyl]amine]
67%	CCNCc1cncc(-c2ccc3[nH]nc(-c4ncc(C(=O)NC)[nH]4)c3c2)c1C [Example 151, 2-(5-{5-[(ethylamino)methyl]-4-methylpyridin-3-yl}-1H-indazol-3-yl)-N-methyl-1H-imidazole-5-carboxamide]
67%	CCNCc1cncc(-c2ccc3[nH]nc(-c4ncc(C(=O)N5CCOCC5)[nH]4)c3c2)c1C [Example 152, ethyl[(4-methyl-5-{3-[5-(morpholin-4-ylcarbonyl)-1H-imidazol-2-yl]-1H-indazol-5-yl}pyridin-3-yl)methyl]amine]
70%	CCNCc1cncc(-c2ccc3[nH]nc(-c4ncc(C(=O)NCCO)[nH]4)c3c2)c1C [Example 153, 2-(5-{5-[(ethylamino)methyl]-4-methylpyridin-3-yl}-1H-indazol-3-yl)-N-(2-hydroxyethyl)-1H-imidazole-5-carboxamide]
37%	CCNCc1cncc(-c2ccc3[nH]nc(-c4ncc(C(=O)NCCSCc5ccc(CN(C)C)o5)[nH]4)c3c2)c1C [Example 155, N-{2-[({5-[(dimethylamino)methyl]-2-furyl}methyl)thio]ethyl}-2-(5-{5-[(ethylamino)methyl]-4-methylpyridin-3-yl}-1H-indazol-3-yl)-1H-imidazoie-5-carboxamide]
25%	CCNCc1cncc(-c2ccc3[nH]nc(-c4ncc(C(=O)N(C)CCN(C)C)[nH]4)c3c2)c1C [Example 156]
28%	CCNCc1cncc(-c2ccc3[nH]nc(-c4ncc(C(=O)NC/C=C(\C)CCC=C(C)C)[nH]4)c3c2)c1C [Example 157]
56%	CCNCc1cncc(-c2ccc3[nH]nc(-c4ncc(C(=O)NC5Cc6ccccc6C5)[nH]4)c3c2)c1C [Example 158, N-(2,3-dihydro-1H-inden-2-yl)-2-(5-{5-[(ethylamino)methyl]-4-methylpyridin-3-yl}-1H-indazol-3-yl)-1H-imidazole-5-carboxamide]
28%	CCNCc1cncc(-c2ccc3[nH]nc(-c4ncc(C(=O)NCc5ccc(CN(C)C)cc5)[nH]4)c3c2)c1C [Example 159, N-{4[(dimethylamino)methyl]benzyl}-2-(5-{5-[(ethylamino)methyl]-4-methylpyridin-3-yl}-1H-indazol-3-yl)-1H-imidazole-5-carboxamide]
48%	CCNCc1cncc(-c2ccc3[nH]nc(-c4ncc(C(=O)NC(Cc5cc(C)no5)C5CC5)[nH]4)c3c2)c1C (stereo not drawn) [Example 160, N-[1-cyclopropyl-2-(3-methylisoxazol-5-yl)ethyl]-2-(5-{5-[(ethylamino)methyl]-4-methylpyridin-3-yl}-1H-indazol-3-yl)-1H-imidazole-5-carboxamide]
48%	CCNCc1cncc(-c2ccc3[nH]nc(-c4ncc(C(=O)NCCc5c[nH]cn5)[nH]4)c3c2)c1C [Example 161, 2-(5-{5-[(ethylamino)methyl]-4-methylpyridin-3yl-1H-indazol-3yl)-N-2-(1H-imidazol-4-yl)ethyl]-1H-imidazole-5-carboxamide]
81%	CCNCc1cncc(-c2ccc3[nH]nc(-c4ncc(C(=O)N[C@H]5CCc6ccccc65)[nH]4)c3c2)c1C [Example 162]
60%	CCNCc1cncc(-c2ccc3[nH]nc(-c4ncc(C(=O)N5CCSCC5)[nH]4)c3c2)c1C [Example 163, ethyl[(4-methyl-5-{3-[5-(thiomorpholin-4-ylcarbonyl)-1H-imidazol-2-yl]-1H-indazol-5-yl}pyridin-3-yl)methyl]amine]
